Key:
[1] = tested on: male rats of the Sprague-Dawley strain; test: Locomotor activity measurement in rats; assay type: in vivo, rat
Procedure: FIGS. 4A-B—Locomotor activity of SD rats after i.p. injection of IPH (10 mg/kg) and saline. The time course of locomotor response over a 120 min period following i.p. administration of IPH (10 mg/kg) versus saline is shown in FIG. 4A. As expected, IPH produced robust effects on locomotor activity in rats compared to saline injections at every 10 min period recorded post-dosing with a mean of nearly 1200 counts recorded during the initial 10 min measurement. Shown in FIG. 4B are the cumulative locomotor activity counts over the entire 120 min study period.
Chemical compounds. dl-threo-methylphenidate (MPH) was purchased from Sigma-Aldrich (St. Louis, Mo.). dl-isopropylphenidate (IPH) was also synthesized in the inventors' laboratory using the following method. In brief, (±)-ritalinic acid (2 mmol) was dissolved in isopropyl alcohol saturated with HCl gas (75 ml) and refluxed for 24 h under nitrogen. […] All compounds studied were assessed as their HCl salts. […]
Locomotor Activity Measurement in Rats. Locomotor-inducing activity of IPH was measured according to methods previously described by Patrick and associates during their establishment the differential pharmacology of the enantiomers of MPH (Patrick et al., 1987) as well as hydroxylated metabolites of MPH (Patrick et al., 1981). […] In brief, following an initial 60 min habituation period to the activity chamber, racemic IPH (or saline) was administered intraperitonealy (i.p.) to each animal (n=5 per active drug group; n=3 per saline group) at a dose of 10 mg/kg to correspond with 10 mg of racemic MPH (delivering 5 mg of d-MPH) which was previously determined to produce maximal behavioral responses (Patrick et al., 1987). […] Locomotor activity was recorded within doughnut-shaped cages with six photocell sensors equally spaced around a 9 cm runway. Activity counts as assessed by light-beam interruptions were recorded for each animal in increments of 10 minutes over a 2 hr period. Differences in the cumulative motor activity accounts were assessed by the unpaired, two-tailed Student t-test. […]

[2] = tested on: Sprague-Dawley rats; conditions: intracerebroventricular; cited from earlier work
[3] = immediate-release tablet; cited from earlier work

SMILES	mean locomotor activity counts during the initial 10 min measurement ([1]; 10 mg/kg i.p., SD rats) [counts]	cumulative locomotor activity counts over 120 min versus saline ([1]; 10 mg/kg i.p., SD rats, p<0.01)	locomotor responses compared with d-MPH 5 mg/kg of the earlier study (Patrick et al., 1987) ([1]; racemic IPH 10 mg/kg i.p., identical experimental conditions)	duration of locomotor activity [2] [min]	plasma half-life [3] [h]
CC(C)OC(=O)C(c1ccccc1)C1CCCCN1 (racemic) [IPH, dl-threo-α-phenyl-2-piperidineacetic acid isopropyl ester]	~1200	significantly elevated	more potent and sustained locomotor responses	–	–
COC(=O)C(c1ccccc1)C1CCCCN1 (racemic) [MPH, dl-threo-methylphenidate, reference compound]	–	–	–	60	2 to 3

From patent US20120245201A1, “Isopropylphenidate for Treatment of Attention-Deficit/Hyperactivity Disorder and Fatigue-Related Disorders and Conditions” (priority 2009, published 2012)
